According to the supplement of paper PMC10307832:

Key:
Experiment in all cases: relative viability (nuclei count vs DMSO), 5 days (fraction); higher = more cells survive
PC-14 = system: PC-14
Summary of the method: (§1)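 Dosing by pin tool came one day after lung cancer cell lines were seeded in 1536-well plates, using either one drug or a fixed anchor-drug dose plus five library-drug doses (not always all listed) in √10 steps. After 5 days, nuclei were counted on 4× images. Relative viability is treated-well nuclei count divided by vehicle-well nuclei count, and values are medians of duplicate plates.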

LCLC-97TM1 = system: LCLC-97TM1
Summary of the method: as §1

NCI-H647 = system: NCI-H647
Summary of the method: as §1

NCI-H1734 = system: NCI-H1734
Summary of the method: as §1

LXF-289 = system: LXF-289
Summary of the method: as §1

NCI-H727 = system: NCI-H727
Summary of the method: as §1

NCI-H1915 = system: NCI-H1915
Summary of the method: as §1

NCI-H1993 = system: NCI-H1993
Summary of the method: as §1

NCI-H2085 = system: NCI-H2085
Summary of the method: as §1

NCI-H322M = system: NCI-H322M
Summary of the method: as §1

HOP-62 = system: HOP-62
Summary of the method: as §1

NCI-H661 = system: NCI-H661
Summary of the method: as §1

EPLC-272H = system: EPLC-272H
Summary of the method: as §1

NCI-H2126 = system: NCI-H2126
Summary of the method: as §1

SW 1573 = system: SW 1573
Summary of the method: as §1

H3255 = system: H3255
Summary of the method: as §1

SK-LU-1 = system: SK-LU-1
Summary of the method: as §1

NCI-H2023 = system: NCI-H2023
Summary of the method: as §1

NCI-H2347 = system: NCI-H2347
Summary of the method: as §1

EMC-BAC-2 = system: EMC-BAC-2
Summary of the method: as §1

NCI-H2009 = system: NCI-H2009
Summary of the method: as §1

`COc1cc2nccc(Oc3ccc(NC(=O)Nc4cc(C)on4)c(Cl)c3)c2cc1OC` [Tivozanib] + O=C(CCCCCCC(=O)Nc1ccccc1)NO [Vorinostat] (partner 1 µM) gave a relative viability (PC-14; first compound 0.005 µM) of 0.728, a relative viability (PC-14; first compound 0.01581 µM) of 0.792 and a relative viability (PC-14; first compound 0.05 µM) of 0.711. It also gave a relative viability (PC-14; first compound 0.1581 µM) of 0.695, a relative viability (PC-14; first compound 0.5 µM) of 0.58 and a relative viability (LCLC-97TM1; first compound 0.005 µM) of 0.619. For the same compound, the relative viability (LCLC-97TM1; first compound 0.01581 µM) was 0.69, the relative viability (LCLC-97TM1; first compound 0.05 µM) was 0.686 and the relative viability (LCLC-97TM1; first compound 0.1581 µM) was 0.732. For the same compound, the relative viability (LCLC-97TM1; first compound 0.5 µM) was 0.323, the relative viability (NCI-H647; first compound 0.005 µM) was 0.555 and the relative viability (NCI-H647; first compound 0.01581 µM) was 0.654. The relative viability (NCI-H647; first compound 0.05 µM) was 0.692, the relative viability (NCI-H647; first compound 0.1581 µM) was 0.631 and the relative viability (NCI-H647; first compound 0.5 µM) was 0.48. The relative viability (NCI-H1734; first compound 0.005 µM) was 0.685, the relative viability (NCI-H1734; first compound 0.01581 µM) was 0.79 and the relative viability (NCI-H1734; first compound 0.05 µM) was 0.813. It also gave a relative viability (NCI-H1734; first compound 0.1581 µM) of 0.578, a relative viability (NCI-H1734; first compound 0.5 µM) of 0.57 and a relative viability (LXF-289; first compound 0.005 µM) of 0.647. For the same compound, the relative viability (LXF-289; first compound 0.01581 µM) was 0.674, the relative viability (LXF-289; first compound 0.05 µM) was 0.741 and the relative viability (LXF-289; first compound 0.1581 µM) was 0.939. The relative viability (LXF-289; first compound 0.5 µM) was 0.684, the relative viability (NCI-H727; first compound 0.005 µM) was 1.15 and the relative viability (NCI-H727; first compound 0.01581 µM) was 1.26. For the same compound, the relative viability (NCI-H727; first compound 0.05 µM) was 1.3, the relative viability (NCI-H727; first compound 0.1581 µM) was 0.841 and the relative viability (NCI-H727; first compound 0.5 µM) was 1.22. It also gave a relative viability (NCI-H1915; first compound 0.005 µM) of 0.488, a relative viability (NCI-H1915; first compound 0.01581 µM) of 0.503 and a relative viability (NCI-H1915; first compound 0.05 µM) of 0.567. The relative viability (NCI-H1915; first compound 0.1581 µM) was 0.391, the relative viability (NCI-H1915; first compound 0.5 µM) was 0.399 and the relative viability (NCI-H1993; first compound 0.005 µM) was 0.692. It also gave a relative viability (NCI-H1993; first compound 0.01581 µM) of 0.579, a relative viability (NCI-H1993; first compound 0.05 µM) of 0.965 and a relative viability (NCI-H1993; first compound 0.1581 µM) of 0.618. It also gave a relative viability (NCI-H1993; first compound 0.5 µM) of 0.585, a relative viability (NCI-H2085; first compound 0.005 µM) of 0.754 and a relative viability (NCI-H2085; first compound 0.01581 µM) of 0.796. It also gave a relative viability (NCI-H2085; first compound 0.05 µM) of 0.825, a relative viability (NCI-H2085; first compound 0.1581 µM) of 0.709 and a relative viability (NCI-H2085; first compound 0.5 µM) of 0.786. For the same compound, the relative viability (NCI-H322M; first compound 0.005 µM) was 0.768, the relative viability (NCI-H322M; first compound 0.01581 µM) was 0.857 and the relative viability (NCI-H322M; first compound 0.05 µM) was 0.87. For the same compound, the relative viability (NCI-H322M; first compound 0.1581 µM) was 0.665, the relative viability (NCI-H322M; first compound 0.5 µM) was 0.744 and the relative viability (HOP-62; first compound 0.005 µM) was 0.633. The relative viability (HOP-62; first compound 0.01581 µM) was 0.638, the relative viability (HOP-62; first compound 0.05 µM) was 0.652 and the relative viability (HOP-62; first compound 0.1581 µM) was 0.376. For the same compound, the relative viability (HOP-62; first compound 0.5 µM) was 0.434, the relative viability (NCI-H661; first compound 0.005 µM) was 0.782 and the relative viability (NCI-H661; first compound 0.01581 µM) was 0.776. For the same compound, the relative viability (NCI-H661; first compound 0.05 µM) was 0.789, the relative viability (NCI-H661; first compound 0.1581 µM) was 0.8 and the relative viability (NCI-H661; first compound 0.5 µM) was 0.802. It also gave a relative viability (EPLC-272H; first compound 0.005 µM) of 0.452, a relative viability (EPLC-272H; first compound 0.01581 µM) of 0.617 and a relative viability (EPLC-272H; first compound 0.05 µM) of 0.385. The relative viability (EPLC-272H; first compound 0.1581 µM) was 0.435, the relative viability (EPLC-272H; first compound 0.5 µM) was 0.281 and the relative viability (NCI-H2126; first compound 0.005 µM) was 0.795. The relative viability (NCI-H2126; first compound 0.01581 µM) was 0.822, the relative viability (NCI-H2126; first compound 0.05 µM) was 0.82 and the relative viability (NCI-H2126; first compound 0.1581 µM) was 0.482. For the same compound, the relative viability (NCI-H2126; first compound 0.5 µM) was 0.729, the relative viability (SW 1573; first compound 0.005 µM) was 0.614 and the relative viability (SW 1573; first compound 0.01581 µM) was 0.935. For the same compound, the relative viability (SW 1573; first compound 0.05 µM) was 0.677, the relative viability (SW 1573; first compound 0.1581 µM) was 0.506 and the relative viability (SW 1573; first compound 0.5 µM) was 0.281. The relative viability (H3255; first compound 0.005 µM) was 0.633, the relative viability (H3255; first compound 0.01581 µM) was 0.794 and the relative viability (H3255; first compound 0.05 µM) was 0.885. It also gave a relative viability (H3255; first compound 0.1581 µM) of 0.888, a relative viability (H3255; first compound 0.5 µM) of 0.611 and a relative viability (SK-LU-1; first compound 0.005 µM) of 0.796. The relative viability (SK-LU-1; first compound 0.01581 µM) was 0.838, the relative viability (SK-LU-1; first compound 0.05 µM) was 0.707 and the relative viability (SK-LU-1; first compound 0.1581 µM) was 0.6. It also gave a relative viability (SK-LU-1; first compound 0.5 µM) of 0.729, a relative viability (NCI-H2023; first compound 0.005 µM) of 0.488 and a relative viability (NCI-H2023; first compound 0.01581 µM) of 0.694. It also gave a relative viability (NCI-H2023; first compound 0.05 µM) of 0.703, a relative viability (NCI-H2023; first compound 0.1581 µM) of 0.48 and a relative viability (NCI-H2023; first compound 0.5 µM) of 0.441. For the same compound, the relative viability (NCI-H2347; first compound 0.005 µM) was 0.612, the relative viability (NCI-H2347; first compound 0.01581 µM) was 0.577 and the relative viability (NCI-H2347; first compound 0.05 µM) was 0.61. The relative viability (NCI-H2347; first compound 0.1581 µM) was 0.797, the relative viability (NCI-H2347; first compound 0.5 µM) was 0.517 and the relative viability (EMC-BAC-2; first compound 0.005 µM) was 0.281. It also gave a relative viability (EMC-BAC-2; first compound 0.01581 µM) of 0.548, a relative viability (EMC-BAC-2; first compound 0.05 µM) of 0.5 and a relative viability (EMC-BAC-2; first compound 0.1581 µM) of 0.345. It also gave a relative viability (EMC-BAC-2; first compound 0.5 µM) of 0.201, a relative viability (NCI-H2009; first compound 0.005 µM) of 0.623 and a relative viability (NCI-H2009; first compound 0.01581 µM) of 0.785. For the same compound, the relative viability (NCI-H2009; first compound 0.05 µM) was 0.741, the relative viability (NCI-H2009; first compound 0.1581 µM) was 0.738 and the relative viability (NCI-H2009; first compound 0.5 µM) was 0.621.
